Test results: patent US20250304576A1 (Cancer Research Technology Limited, priority 2022, published 2025)

Experiments:
[1] = target: T1, Recombinant IKKα (Homo sapiens, UniProt O15111); test: DELFIA IKKα kinase assay (apparent Ki, Cheng-Prusoff); assay type: biochemical; conditions: non-italicised figure: DELFIA assay
T1 construct: purchased Millipore, Dundee, UK
T1 sequence (O15111 1-745): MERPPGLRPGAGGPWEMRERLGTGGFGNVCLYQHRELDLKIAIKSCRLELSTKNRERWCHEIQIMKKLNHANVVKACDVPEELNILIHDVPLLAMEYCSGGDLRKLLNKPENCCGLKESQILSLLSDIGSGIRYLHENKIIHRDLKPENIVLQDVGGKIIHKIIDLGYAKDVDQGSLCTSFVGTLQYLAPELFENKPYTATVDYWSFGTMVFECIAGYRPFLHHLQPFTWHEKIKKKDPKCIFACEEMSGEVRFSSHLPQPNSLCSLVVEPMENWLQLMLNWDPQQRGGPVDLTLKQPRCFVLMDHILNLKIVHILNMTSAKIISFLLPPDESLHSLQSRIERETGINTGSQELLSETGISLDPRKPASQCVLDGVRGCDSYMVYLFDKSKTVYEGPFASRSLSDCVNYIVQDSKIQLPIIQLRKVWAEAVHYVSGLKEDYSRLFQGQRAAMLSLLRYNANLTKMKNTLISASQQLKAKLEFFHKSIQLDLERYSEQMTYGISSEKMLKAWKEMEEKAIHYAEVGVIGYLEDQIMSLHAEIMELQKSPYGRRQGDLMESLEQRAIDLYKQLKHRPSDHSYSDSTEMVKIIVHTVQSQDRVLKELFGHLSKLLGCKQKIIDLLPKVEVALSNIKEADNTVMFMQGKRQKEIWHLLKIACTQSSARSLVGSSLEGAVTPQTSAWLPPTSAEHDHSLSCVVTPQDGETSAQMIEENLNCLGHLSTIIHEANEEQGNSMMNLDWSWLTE
In short: (§1)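 DELFIA time-resolved fluorescence (ex 340/em 615 nm) quantified phosphorylation of a biotinylated IκB-α Ser32 peptide (0.375 μM) by 37 nM recombinant IKKα or IKKβ. Reactions used 40 μM ATP, Tris pH 7.5 buffer with MgCl2, DTT and BSA, 60 min at 30° C. Cheng-Prusoff equation gave apparent Ki.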

[2] = target: T2, Recombinant IKKβ (Homo sapiens, UniProt O14920); test: DELFIA IKKβ kinase assay (apparent Ki, Cheng-Prusoff); assay type: biochemical; conditions: non-italicised figure: DELFIA assay
T2 construct: purchased Millipore, Dundee, UK
T2 sequence (O14920 1-756): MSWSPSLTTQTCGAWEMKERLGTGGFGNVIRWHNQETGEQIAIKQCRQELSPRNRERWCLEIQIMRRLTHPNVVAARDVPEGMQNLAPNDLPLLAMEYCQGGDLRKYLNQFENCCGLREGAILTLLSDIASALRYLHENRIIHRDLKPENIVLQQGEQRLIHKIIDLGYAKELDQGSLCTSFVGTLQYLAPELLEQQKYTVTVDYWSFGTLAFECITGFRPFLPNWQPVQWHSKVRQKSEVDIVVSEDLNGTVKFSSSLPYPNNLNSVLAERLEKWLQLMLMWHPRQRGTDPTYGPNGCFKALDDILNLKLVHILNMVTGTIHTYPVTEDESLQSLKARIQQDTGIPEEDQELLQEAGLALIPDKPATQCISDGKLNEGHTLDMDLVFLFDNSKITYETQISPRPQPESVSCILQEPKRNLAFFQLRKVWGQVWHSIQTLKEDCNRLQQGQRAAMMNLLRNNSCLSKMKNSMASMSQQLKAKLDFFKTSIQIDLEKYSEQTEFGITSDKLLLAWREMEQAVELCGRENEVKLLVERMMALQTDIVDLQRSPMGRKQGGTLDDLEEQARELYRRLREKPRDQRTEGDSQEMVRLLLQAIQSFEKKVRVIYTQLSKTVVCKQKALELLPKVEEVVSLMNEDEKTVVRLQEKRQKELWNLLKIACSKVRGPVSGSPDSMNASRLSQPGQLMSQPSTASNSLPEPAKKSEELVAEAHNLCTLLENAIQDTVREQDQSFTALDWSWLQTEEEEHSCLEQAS
In short: as §1

Ki [1] [nM]	Ki [2] [nM]	SMILES
6	268	CC(C)(C)C#Cc1c(-c2ccc3[nH]nc(N)c3c2)ccnc1N [Example 72, 5-(2-Amino-3-(3,3-dimethylbut-1-yn-1-yl)pyridine-4-yl)-1H-indazol-3-amine]
12	289	Nc1nccc(-c2ccc3[nH]nc(N)c3c2)c1C#CC1CCCC1 [Example 73, 5-(2-Amino-3-(cyclopentylethynyl)pyridine-4-yl)-1H-indazol-3-amine]
12	342	Nc1nccc(-c2ccc3[nH]nc(N)c3c2)c1C#CC1CCCCC1 [Example 74, 5-(2-Amino-3-(cyclohexylethynyl)pyridine-4-yl)-1H-indazol-3-amine]
10	152	Nc1nccc(-c2ccc3[nH]nc(N)c3c2)c1C#Cc1ccccc1 [Example 75, 5-(2-Amino-3-(phenylethynyl)pyridine-4-yl)-1H-indazol-3-amine]
6	402	Nc1nccc(-c2ccc3[nH]nc(N)c3c2)c1C#CCO [Example 83, 3-(2-Amino-4-(3-amino-1H-indazol-5-yl)pyridine-3-yl)prop-2-yn-1-ol]
1	103	Nc1nccc(-c2ccc3[nH]nc(N)c3c2)c1C#CCCO [Example 84, 4-(2-Amino-4-(3-amino-1H-indazol-5-yl)pyridine-3-yl)but-3-yn-1-ol]
4	96	Nc1nccc(-c2ccc3[nH]nc(N)c3c2)c1C#CCCCO [Example 85, 5-(2-Amino-4-(3-amino-1H-indazol-5-yl)pyridine-3-yl)pent-4-yn-1-ol]
8	294	CC(C)(O)C#Cc1c(-c2ccc3[nH]nc(N)c3c2)ccnc1N [Example 87, 4-(2-Amino-4-(3-amino-1H-indazol-5-yl)pyridine-3-yl)-2-methylbut-3-yn-2-ol]
36	1410	Nc1nccc(-c2ccc3[nH]nc(N)c3c2)c1C#CC1(O)CCCCC1 [Example 90, 1-((2-Amino-4-(3-amino-1H-indazol-5-yl)pyridine-3-yl)ethynyl)cyclohexan-1-ol]
105	3090	Nc1nccc(-c2ccc3[nH]nc(N)c3c2)c1C#CC1(O)CCCCCC1 [Example 91, 1-((2-Amino-4-(3-amino-1H-indazol-5-yl)pyridine-3-yl)ethynyl)cycloheptan-1-ol]
7	325	CC(C)(N)C#Cc1c(-c2ccc3[nH]nc(N)c3c2)ccnc1N [Example 92, 5-(2-Amino-3-(3-amino-3-methylbut-1-yn-1-yl)pyridin-4-yl)-1H-indazol-3-amine]
32	880	Nc1nccc(-c2ccc3[nH]nc(N)c3c2)c1C#CCCN1CCCCC1 [Example 93, 5-(2-Amino-3-(4-(piperidin-1-yl)but-1-yn-1-yl)pyridin-4-yl)-1H-indazol-3-amine]
91	3270	Nc1nccc(-c2ccc3[nH]nc(N)c3c2)c1C#CCCCN1CCCCC1 [Example 95, 5-(2-Amino-3-(5-(piperidin-1-yl)pent-1-yn-1-yl)pyridin-4-yl)-1H-indazol-3-amine]
350	1150	Nc1nccc(-c2ccc3[nH]nc(N)c3c2)c1C#CCCCN1CCOCC1 [Example 96, 5-(2-Amino-3-(5-morpholinopent-1-yn-1-yl)pyridin-4-yl)-1H-indazol-3-amine]
15	531	Nc1nccc(-c2ccc3[nH]nc(N)c3c2)c1C#CCCC(=O)N1CCOCC1 [Example 99, 5-(2-Amino-4-(3-amino-1H-indazol-5-yl)pyridine-3-yl)-1-morpholinopent-4-yn-1-one]
54	838	Nc1cc(-c2cc(-c3ccccc3)c3[nH]nc(N)c3c2)ccn1 [Example 104, 5-(2-Aminopyridin-4-yl)-7-phenyl-1H-indazol-3-amine]

SMILES	Ki [1] [nM]	Ki [2] [nM]
CC(C)(C)OCC#Cc1c(-c2ccc3[nH]nc(N)c3c2)ccnc1N [Example 88, 5-(2-Amino-3-(3-(tert-butoxy)prop-1-yn-1-yl)pyridine-4-yl)-1H-indazol-3-amine]	133	2340
